According to patent publication US7939546B2, “Quinoline derivatives for modulating DNA methylation” (SuperGen, Inc., priority 2007, dated 2011):

Experiments:
[1] = test system: p16; assay: RT-PCR assay for gene expression (p16) in RKO and HCT-116 cells; format: cell-based; conditions: for RNA expression levels of p16: FIG. 1, varying concentrations, forty eight hour incubation
Description: RKO and HCT-116 cells were treated with Cpd. AAA, Cpd. BBB, and Cpd. CCC at varying concentrations. After a forty eight hour incubation cells were harvested for RNA isolation using the Qiagen RNeasy Mini kit. RNA was quantified using a spectrophotometer and 1 μg of RNA was used for cDNA synthesis using the Bio-Rad iScript cDNA Synthesis Kit. RTPCR was performed using SYBER GreenER qPCR SuperMix for iCycler according to the manufacturer's protocol. Primer sequences used are as follows [NT] (SEQ ID NO: 2) and [NT] (SEQ ID NO: 3), MLH-1 [NT] (SEQ ID NO: 4) and [NT] (SEQ ID NO:5), [NT] (SEQ ID NO: 6) and [NT] (SEQ ID NO: 7), GAPDH [NT] (SEQ ID NO:8) and [NT] (SEQ ID NO:9), and […] (SEQ ID NO: 10) and [NT] (SEQ ID NO:11). Samples were analyzed on the iQ5 Multicolor Real-Time PCR Detection System from Bio-Rad. Data analysis was performed using the iQ5 Optical System Software version 2.0, Threshold Cycle (CT) and CT mean values were determined from this software. For each sample there are at least four reactions, two for p16 and two for GAPDH the housekeeping control. The mean CT value from the GAPDH reactions was subtracted from each of the corresponding p16 samples CT giving a value termed Delta CT. Then the Delta CT for the untreated p16 sample is subtracted from all treated Delta CT values giving another value termed Delta Delta CT. […] The duplicate samples are averaged together to get an average Relative Expression for each treatment and the Standard Error is calculated. Relative expression values for p15 and MLH-1 were calculated using the same method. […] AAA, Cpd. BBB, and Cpd. […] Cpd. […] Because the higher levels of p16 seemed to have less effect in causing re-expression of p16 there may be some issues with drug solubility or toxicity at the higher concentrations tested.

[2] = test system: RKO; assay: Cell-based growth assay (Cell-Titer-Glo), RKO; conditions: Homo sapiens, 96 hours, read-out: IC50 Values CTG
Description: (§1) Cell culture-based assays can be used to evaluate the ability of compounds of the invention to inhibit one or more cellular activities, such as cancer cell growth and/or survival. Numerous cancer cell lines can be obtained from the American Type Culture Collection (ATCC) and other sources. Briefly, cells are seeded into 96-well, tissue-culture treated, opaque white plates (Thermo Electron, Vantaa, Finland), at between 5000 and 10000 cells per well, depending on the speed of cell proliferation, in 100 μl of appropriate growth medium (determined by the ATCC). Cells are then exposed to the appropriate concentration of drug or an equal amount of DMSO (drug diluent) and allowed to grow in its presence for 96 hours. Following this, 100 μl of Cell-Titer-Glo (CTG) reagent (Promega, Inc., Madison, Wis.) is added to each well. Plates are then shaken for 2 minutes at room temperature to allow for cell lysis and incubated for 10 minutes at room temperature to stabilize the luminescent signal. Similar to the Kinase-Glo assay reagent from Promega, this reagent contains both luciferase enzyme and its substrate luciferin. Luciferase, activated by ATP in the cell lysate, catalyzes the conversion of luciferin to oxyluciferin, a reaction which produces light. The amount of light produced is proportionate to the amount of ATP in the cell lysate, which is itself proportional to cell number and gives an index of cellular proliferation.

[3] = test system: Panc-1; assay: Cell-based growth assay (Cell-Titer-Glo), Panc-1; conditions: Homo sapiens; Panc-1, 96 hours; read-out: IC50 Values CTG
Description: as §1, with “The amount of light produced is proportionate to the amount of ATP in the cell lysate, which is itself proportional to cell number and gives an index of cellular proliferation.” left out

[4] = test system: HCT-116; assay: Cell-based growth assay (Cell-Titer-Glo), HCT-116; conditions: Homo sapiens; HCT-116, 96 hours; read-out: IC50 Values CTG
Description: as §1, with “The amount of light produced is proportionate to the amount of ATP in the cell lysate, which is itself proportional to cell number and gives an index of cellular proliferation.” left out

Row | IC50 [3] [nM] | IC50 [4] [µM] | SMILES | RNA expression levels of p16 [1] | re-expression of p16 over no treatment ([1]; concentration of 0.11 M (so in the source)) | IC50 [2] [nM]
1 | 1800 | 6.15 | Cl.O=C(Nc1ccc(Sc2ccncc2)cc1)c1ccc(Nc2ccnc3ccccc23)cc1 [Cpd. AAA, N-[4-(pyridin-4-ylthio)phenyl]-4-(quinolin-4-ylamino)benzamide hydrochloride] | increase the RNA expression levels of p16 | greatest re-expression of p16 | 1220
2 | 1000 | 0.67 | Cl.Nc1cc(Sc2ccc(NC(=O)c3ccc(Nc4ccnc5ccccc45)cc3)cc2)ccn1 [Cpd. BBB, N-[4-(2-aminopyridin-4-ylthio)phenyl]-4-(quinolin-4-ylamino)benzamide hydrochloride] | increase the RNA expression levels of p16 |  | 740
